Test results taken from patent US20110009268A1, “IPBC-CONTAINING COACERVATES” (priority 2006, published 2011).

Test system: mold fungi
Assay: Coatings test: mold resistance of emulsion paint (formula A)
Protocol: The substance under test was incorporated into the test paint, at the stated concentration, using a dissolver.
The procedure for testing the emulsion paints for mold resistance was as follows:
The coating material under test was applied to both sides of a suitable substrate. In order to obtain realistic results, one portion of the test specimens was leached with running water (24 h, 20° C.) prior to the test for mold resistance; a further portion was treated with a warm stream of fresh air (7 days, 40° C.).
The samples thus prepared were then placed on an agar nutrient medium, and both samples and nutrient medium were contaminated with fungal spores. Inspection took place after 2-3 weeks' storage (29±1° C., 80-90% relative humidity).
Contamination was carried out using spores of the following mold fungi which are known to destroy coating materials or which are frequently encountered on coatings:
Alternaria tennis Aspergillus flavus Aspergillus niger Aspergillus ustus Cindosporum herbarum Paecilomyces variotii Penicillum citrium Aureobasidium pullulans Stachybotrys chartarum

**Q.** Which “mold resistance of coating” value (0.08% based on solids content of the emulsion paint, without leaching and wind tunnel exposure) does the source give for CCCCNC(=O)OCC#CI [pure IPBC, 3-iodo-2-propynyl butylcarbamate] here?
**A.** The value was “mold-resistant”.

**Q.** What about the “activity of coating against mold” value (0.16% based on solids content of the emulsion paint, after leaching and wind tunnel exposure) of the same molecule?
**A.** Its value is “active”.
